From patent US20220033397A1, “PHARMACEUTICAL COMPOUNDS AND THEIR USE AS INHIBITORS OF UBIQUITIN SPECIFIC PROTEASE 19 (USP19)” (ALMAC DISCOVERY LIMITED, priority 2018, published 2022) come the findings set out here.

This test concerns the target T1, Full-length USP19 (Homo sapiens, UniProt O94966).
T1 construct: Full-length USP19 was purchased from Boston Biochem (E-576); purchased Boston Biochem E-576
T1 sequence (O94966 1-1318): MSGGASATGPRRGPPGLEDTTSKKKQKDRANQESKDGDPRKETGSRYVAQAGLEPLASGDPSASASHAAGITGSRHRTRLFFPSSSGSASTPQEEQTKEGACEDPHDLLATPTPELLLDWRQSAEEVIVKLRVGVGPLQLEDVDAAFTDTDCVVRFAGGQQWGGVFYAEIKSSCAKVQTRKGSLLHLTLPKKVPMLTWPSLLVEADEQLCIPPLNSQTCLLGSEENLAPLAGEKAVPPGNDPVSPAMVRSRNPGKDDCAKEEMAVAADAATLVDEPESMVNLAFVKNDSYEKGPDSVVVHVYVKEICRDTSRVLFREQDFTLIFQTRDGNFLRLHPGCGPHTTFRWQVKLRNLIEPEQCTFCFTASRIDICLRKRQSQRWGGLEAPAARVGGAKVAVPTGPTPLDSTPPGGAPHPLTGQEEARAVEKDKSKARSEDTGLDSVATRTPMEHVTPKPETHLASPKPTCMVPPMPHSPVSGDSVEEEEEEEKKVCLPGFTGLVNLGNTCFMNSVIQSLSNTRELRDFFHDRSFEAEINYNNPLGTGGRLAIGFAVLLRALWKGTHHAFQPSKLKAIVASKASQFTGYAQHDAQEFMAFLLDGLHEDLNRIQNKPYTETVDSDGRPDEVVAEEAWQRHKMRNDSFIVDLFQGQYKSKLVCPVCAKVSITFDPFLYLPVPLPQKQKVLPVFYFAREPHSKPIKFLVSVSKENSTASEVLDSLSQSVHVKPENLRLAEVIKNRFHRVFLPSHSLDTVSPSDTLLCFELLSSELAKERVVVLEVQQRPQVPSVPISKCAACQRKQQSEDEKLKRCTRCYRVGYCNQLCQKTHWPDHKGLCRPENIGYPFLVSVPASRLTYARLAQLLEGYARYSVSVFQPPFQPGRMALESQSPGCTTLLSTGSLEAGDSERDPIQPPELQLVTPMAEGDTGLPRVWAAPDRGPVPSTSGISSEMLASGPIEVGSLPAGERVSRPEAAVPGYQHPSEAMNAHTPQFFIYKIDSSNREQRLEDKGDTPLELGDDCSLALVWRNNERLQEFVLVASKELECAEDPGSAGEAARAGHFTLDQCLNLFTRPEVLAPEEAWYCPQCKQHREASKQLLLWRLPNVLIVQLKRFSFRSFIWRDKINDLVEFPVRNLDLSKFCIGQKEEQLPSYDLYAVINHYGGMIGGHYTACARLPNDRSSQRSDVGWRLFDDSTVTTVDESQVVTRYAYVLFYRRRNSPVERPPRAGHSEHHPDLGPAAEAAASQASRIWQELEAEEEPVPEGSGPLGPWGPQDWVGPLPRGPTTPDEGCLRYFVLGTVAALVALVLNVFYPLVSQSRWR
Put plainly: USP19 fluorescence polarisation (FP) homogeneous assay with Ubiquitin-Lys-TAMRA substrate. It counts as biochemical. The following applies: 2.5 nM USP19, 30 min pre-incubation, average of at least two duplicate experiments. Summed up:
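Full-length USP19 preincubated 30 min at RT with inhibitor (200 μM to 2 μM series, 8–18 points) before adding 500 nM Ubiquitin-Lys-TAMRA substrate.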

One may read the IC50 as the point on the concentration scale where inhibition reaches its midpoint.

The structures appear in SMILES notation.

For `O=C(N1CC[C@@](O)(Cn2cnc(-c3ccccc3)cc2=O)C2(CCCC2)C1)N1CCNCC1c1ccc(C(F)(F)F)cc1` (stereo partly drawn) [Example 336, 3-(((10S)-10-Hydroxy-7-(2-(4-(trifluoromethyl)phenyl)piperazine-1-carbonyl)-7-azaspiro[4.5]decan-10-yl)methyl)-6-phenylpyrimidin-4(3H)-one], the IC50 is < 500 nM.

`O=C(N1CC[C@@](O)(Cn2cnc(-c3ccccc3)cc2=O)C2(CCCC2)C1)N1CCNCC1c1ccsc1` (stereo partly drawn) [Example 337, 3-(((10S)-10-Hydroxy-7-(2-(thiophen-3-yl)piperazine-1-carbonyl)-7-azaspiro[4.5]decan-10-yl)methyl)-6-phenylpyrimidin-4(3H)-one]: the IC50 is < 500 nM.

`COc1cccc(-c2cc(=O)n(C[C@]3(O)CCN(C(=O)N4CCNC[C@H]4c4ccccc4)CC34CCCC4)cn2)c1` [Example 338, 3-(((S)-10-Hydroxy-7-((R)-2-phenylpiperazine-1-carbonyl)-7-azaspiro[4.5]decan-10-yl)methyl)-6-(3-methoxyphenyl) pyrimidin-4(3H)-one]: the IC50 is < 500 nM.

As for `COc1ccc(-c2cc(=O)n(C[C@]3(O)CCN(C(=O)N4CCNC[C@H]4c4ccccc4)CC34CCCC4)cn2)cc1` [Example 339, 3-(((S)-10-Hydroxy-7-((R)-2-phenylpiperazine-1-carbonyl)-7-azaspiro[4.5]decan-10-yl)methyl)-6-(4-methoxyphenyl) pyrimidin-4(3H)-one], the IC50 was < 500 nM.

As to `Cc1ccccc1-c1cc(=O)n(C[C@]2(O)CCN(C(=O)N3CCNC[C@H]3c3ccccc3)CC23CCCC3)cn1` [Example 340, 3-(((S)-10-Hydroxy-7-((R)-2-phenylpiperazine-1-carbonyl)-7-azaspiro[4.5]decan-10-yl)methyl)-6-(o-tolyl)pyrimidin-4(3H)-one], the IC50 was < 500 nM.

Regarding `Cc1cccc(-c2cc(=O)n(C[C@]3(O)CCN(C(=O)N4CCNC[C@H]4c4ccccc4)CC34CCCC4)cn2)c1` [Example 341, 3-(((S)-10-Hydroxy-7-((R)-2-phenylpiperazine-1-carbonyl)-7-azaspiro[4.5]decan-10-yl)methyl)-6-(m-tolyl)pyrimidin-4(3H)-one], the IC50 was < 500 nM.

As for `Cc1ccc(-c2cc(=O)n(C[C@]3(O)CCN(C(=O)N4CCNC[C@H]4c4ccccc4)CC34CCCC4)cn2)cc1` [Example 342, 3-(((S)-10-Hydroxy-7-((R)-2-phenylpiperazine-1-carbonyl)-7-azaspiro[4.5]decan-10-yl)methyl)-6-(p-tolyl)pyrimidin-4(3H)-one], the IC50 was < 500 nM.

Take `O=C(N1CC[C@@](O)(Cn2cnc(-c3cccs3)cc2=O)C2(CCCC2)C1)N1CCNC[C@H]1c1ccccc1` [Example 343, 3-(((S)-10-Hydroxy-7-((R)-2-phenylpiperazine-1-carbonyl)-7-azaspiro[4.5]decan-10-yl)methyl)-6-(thiophen-2-yl)pyri-midin-4(3H)-one]: the IC50 was < 500 nM.

Turning to `O=C(N1CC[C@@](O)(Cn2cnc(-c3ccsc3)cc2=O)C2(CCCC2)C1)N1CCNC[C@H]1c1ccccc1` [Example 344, 3-(((S)-10-Hydroxy-7-((R)-2-phenylpiperazine-1-carbonyl)-7-azaspiro[4.5]decan-10-yl)methyl)-6-(thio-phen-3-yl)pyrimidin-4(3H)-one], the IC50 was < 500 nM.

Turning to `COc1ccc(-c2cc(=O)n(C[C@]3(O)CCN(C(=O)N4CCNC[C@H]4c4ccccc4)CC34CCCC4)cn2)s1` [Example 345, 3-(((S)-10-Hydroxy-7-((R)-2-phenylpiperazine-1-carbonyl)-7-azaspiro[4.5]decan-10-yl)methyl)-6-(5-methoxythiophen-2-yl)pyrimidin-4(3H)-one], the IC50 was < 500 nM.

Consider `O=C(N1CC[C@@](O)(Cn2cnc(-c3ccc4c(c3)CCO4)cc2=O)C2(CCCC2)C1)N1CCNC[C@H]1c1ccccc1` [Example 346, 6-(2,3-Dihydrobenzofuran-5-yl)-3-(((S)-10-hydroxy-7-((R)-2-phenylpiperazine-1-carbonyl)-7-aza-spiro[4.5]decan-10-yl)methyl)pyrimidin-4(3H)-one], for which the IC50 was < 500 nM.

Consider `O=C(N1CC[C@@](O)(Cn2cnc(-c3ccc4c(c3)COC4)cc2=O)C2(CCCC2)C1)N1CCNC[C@H]1c1ccccc1` [Example 347, 6-(1,3-Dihydro-isobenzofuran-5-yl)-3-(((S)-10-hydroxy-7-((R)-2-phenylpiperazine-1-carbonyl)-7-aza-spiro[4.5]decan-10-yl)methyl)pyrimidin-4(3H)-one], for which the IC50 is < 500 nM.

As for `O=C(N1CC[C@@](O)(Cn2cnc(N3CCCCC3)cc2=O)C2(CCCC2)C1)N1CCNC[C@H]1c1ccccc1` [Example 348, 3-(((S)-10-Hydroxy-7-((R)-2-phenylpiperazine-1-carbonyl)-7-aza-spiro[4.5]decan-10-yl)methyl)-6-(piperi-din-1-yl)pyrimidin-4(3H)-one], the IC50 was < 500 nM.

Consider `O=C(N1CC[C@@](O)(Cn2cnc(-c3ccc(Cl)cc3)cc2=O)C2(CCCC2)C1)N1CCNC[C@H]1c1ccccc1` [Example 349, 6-(4-Chlorophenyl)-3-(((S)-10-hydroxy-7-((R)-2-phenylpiperazine-1-carbonyl)-7-aza-spiro[4.5]decan-10-yl)methyl)pyrimidin-4(3H)-one], for which the IC50 is < 500 nM.

Consider `O=C(N1CC[C@@](O)(Cn2cnc(-c3ccc(OC4CC4)cc3)cc2=O)C2(CCCC2)C1)N1CCNC[C@H]1c1ccccc1` [Example 350, 6-(4-Cyclo-propoxyphenyl)-3-(((S)-10-hydroxy-7-((R)-2-phenylpipera-zine-1-carbonyl)-7-azaspiro[4.5]decan-10-yl)methyl)pyrimi-din-4(3H)-one], for which the IC50 was < 500 nM.

In the case of `O=C(N1CC[C@@](O)(Cn2cnc(N3CCC(F)(F)CC3)cc2=O)C2(CCCC2)C1)N1CCNC[C@H]1c1ccccc1` [Example 351, 6-(4,4-Difluoro-piperidin-1-yl)-3-(((S)-10-hydroxy-7-((R)-2-phenylpiperazine-1-carbonyl)-7-aza-spiro[4.5]decan-10-yl)methyl)pyrimidin-4(3H)-one], the IC50 is < 500 nM.

For the compound `O=C(N1CC[C@@](O)(Cn2cnc(N3CC4CC4C3)cc2=O)C2(CCCC2)C1)N1CCNC[C@H]1c1ccccc1` (stereo partly drawn) [Example 352, 6-(3-Aza-bicyclo[3.1.0]hexan-3-yl)-3-(((S)-10-hydroxy-7-((R)-2-phenylpiperazine-1-carbonyl)-7-aza-spiro[4.5]decan-10-yl)methyl)pyrimidin-4(3H)-one], the IC50 is < 500 nM.

For `O=C(N1CC[C@@](O)(Cn2cnc(-c3ccc4c(c3)OCC4)cc2=O)C2(CCCC2)C1)N1CCNC[C@H]1c1ccccc1` [Example 353, 6-(2,3-Dihydrobenzofuran-6-yl)-3-(((S)-10-hy-droxy-7-((R)-2-phenylpiperazine-1-carbonyl)-7-aza-spiro[4.5]decan-10-yl)methyl)pyrimidin-4(3H)-one], the IC50 is < 500 nM.

For the compound `O=C(N1CC[C@@](O)(Cn2cnc(-c3ccccc3OC(F)(F)F)cc2=O)C2(CCCC2)C1)N1CCNC[C@H]1c1ccccc1` [Example 354, 3-(((S)-10-Hydroxy-7-((R)-2-phenylpiperazine-1-carbonyl)-7-azaspiro[4.5]decan-10-yl)methyl)-6-(2-(trifluorometh-oxy)phenyl) pyrimidin-4(3H)-one], the IC50 is < 500 nM.

On to `O=C(N1CC[C@@](O)(Cn2cnc(-c3ccccc3F)cc2=O)C2(CCCC2)C1)N1CCNC[C@H]1c1cccc(F)c1` [Example 355, 6-(2-Fluorophenyl)-3-(((S)-7-((R)-2-(3-fluorophenyl)pipera-zine-1-carbonyl)-10-hydroxy-7-aza-spiro[4.5]decan-10-yl)methyl)pyrimidin-4(3H)-one], for which the IC50 was < 500 nM.

In the case of `COc1ccccc1-c1cc(=O)n(C[C@]2(O)CCN(C(=O)N3CCNC[C@H]3c3cccc(F)c3)CC23CCCC3)cn1` [Example 356, 3-(((S)-7-((R)-2-(3-Fluorophenyl)pipera-zine-1-carbonyl)-10-hydroxy-7-azaspiro[4.5]decan-10-yl)methyl)-6-(2-methoxyphenyl)pyri-midin-4(3H)-one], the IC50 was < 500 nM.
